Where a name gives a salt, the structure may show the parent alone.
Columns and labels:
human P2X3 receptor = target: T1, human P2X3 receptor (Homo sapiens, UniProt P56373); test: Intracellular calcium measurement to assess antagonist activity at human P2X3 receptors (hP2X3 CHO), photina luminescence; assay type: cell-based; parameters: expressed in transfected cells; host or cells: Chinese hamster ovary (CHO) cells; settings: column 2), CHO cells, agonist α,β-methylene-ATP at EC50
T1 sequence (P56373 1-397): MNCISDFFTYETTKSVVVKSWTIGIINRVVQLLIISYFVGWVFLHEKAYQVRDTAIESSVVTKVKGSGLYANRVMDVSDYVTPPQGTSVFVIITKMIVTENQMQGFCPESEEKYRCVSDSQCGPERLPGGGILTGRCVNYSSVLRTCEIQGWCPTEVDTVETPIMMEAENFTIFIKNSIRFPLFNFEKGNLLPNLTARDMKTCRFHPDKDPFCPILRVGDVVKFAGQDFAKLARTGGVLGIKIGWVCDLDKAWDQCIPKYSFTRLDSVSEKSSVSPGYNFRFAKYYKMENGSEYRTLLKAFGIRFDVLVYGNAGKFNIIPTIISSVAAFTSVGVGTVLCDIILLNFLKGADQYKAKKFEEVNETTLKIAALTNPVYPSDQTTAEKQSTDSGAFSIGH
Protocol: 2) Intracellular Calcium Measurement to Assess Antagonist Activity at Human P2X3 Receptors (hP2X3 CHO)
The determination of antagonistic activity at the P2X3 receptor of the compounds of the invention was performed by use of a recombinant cell line. This cell line derives originally from the Chinese hamster ovary (CHO) cell line (Tjio J. H.; Puck T. T., 1958, J. Exp. Med. 108: 259-271). The cell line is stably transfected with the human P2X3 receptor and a calcium-sensitive photoprotein, mitochondrial photina, which, after reconstitution with the cofactor coelenterazine, emits light in dependence of calcium binding [Bovolenta S, Foti M, Lohmer S, Corazza S., J Biomol Screen. 2007 August; 12(5):694-704]. The strength of the photina luminescence signal corresponds to the level of receptor activation upon agonist binding. An inhibitor would decrease the signal depending on its potency and concentration. Bioluminescence was detected using a suitable luminometer [Milligan G, Marshall F, Rees S, Trends in Pharmacological Sciences 17,235-237 (1996)].
On the day before the assay, the cells were plated out in culture medium (DMEM/F12 (PAN, P04-41451), 10% FCS) in 384-well microtiter plates and kept in a cell incubator (96% humidity, 5% v/v CO2, […]). On the day of the assay medium was replaced by 2 mM Ca-tyrode buffer containing 5 μg/ml coelenterazine. Plates were incubated for 3 hours at 37° C. (96% humidity, 5% v/v CO2). […] The resulting light signal was measured immediately in the luminometer.

human P2X2/3 receptors = target: T2, human P2X2/3 receptors (Homo sapiens, UniProt P56373+Q9UBL9); test: Intracellular calcium measurement, antagonist activity at human P2X2/3 receptors (hP2X23 1321N1), Fluo8; assay type: cell-based; settings: column 4); 1321N1 cells, human P2X2/3, Fluo8, agonist ATP at EC50; read-out: 4) hP2X2/3 IC50 [nM] (1321N1)
T2 construct: expressed in transfected cells; host or cells: human astrocytoma 1321N1 (1312N1 [sic])
T2 sequence (P56373 1-397): T1 sequence (P56373 1-397)
T2 sequence (Q9UBL9 1-471): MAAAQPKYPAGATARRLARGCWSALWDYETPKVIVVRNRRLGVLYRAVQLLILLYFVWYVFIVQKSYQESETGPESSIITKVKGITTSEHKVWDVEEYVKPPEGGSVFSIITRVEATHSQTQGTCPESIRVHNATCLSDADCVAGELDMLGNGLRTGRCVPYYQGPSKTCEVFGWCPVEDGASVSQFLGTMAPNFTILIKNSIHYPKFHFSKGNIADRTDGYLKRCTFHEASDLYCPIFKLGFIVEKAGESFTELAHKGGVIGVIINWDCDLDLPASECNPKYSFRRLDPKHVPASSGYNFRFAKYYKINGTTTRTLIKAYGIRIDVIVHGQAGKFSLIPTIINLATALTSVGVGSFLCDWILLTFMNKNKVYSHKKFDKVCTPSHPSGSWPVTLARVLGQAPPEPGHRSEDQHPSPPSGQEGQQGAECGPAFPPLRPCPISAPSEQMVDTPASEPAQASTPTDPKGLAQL
Protocol: 3) And 4) Intracellular Calcium Measurement to Compare Antagonist Activity at Human P2X3 Receptors (hP2X3 1321N1) and at Human P2X2/3 Receptors (hP2X23 1321N1)
The comparison of antagonistic activity at the P2X3 versus the P2X2/3 receptor of the compounds of the invention were performed by use of recombinant cell lines. These cell lines derived originally from the human astrocytoma cell line […] (Macintyre E H, Pontén J, Vatter A E. Acta Pathol Microbiol Scand A. 1972; 80(2):267-83). The cell lines are stably transfected with the human P2X3 receptor forming homotrimeric P2X3 receptors or are co-transfected with P2X2 and P2X3 forming heterotrimeric P2X2/3 receptors. Stimulation of the receptors with the agonist ATP leads to a conformational change of the receptors and influx of extracellular calcium ions through the open ion channel. The cytoplasmatic calcium transient is detected via the calcium sensitive dye Fluo8. The strength of Fluo8 fluorescence signal corresponds to the level of receptor activation. An inhibitor would decrease the signal depending on its potency and concentration. Fluorescence was measured by use of a suitable fluorescence reader.
On the day before the assay, the cells were plated in culture medium (DMEM high glucose, 10% FCS, 1% MEM non-essential amino acids, 4 mM Glutamax) in 384-well poly-D-lysine coated microtiter plates and kept in a cell incubator (96% humidity, 5% v/v CO2, 37° C.). On the day of the assay medium was exchanged by Fluo8 containing buffer and incubated for 60 minutes. Test compounds were added at various concentrations and plates were incubated for 10 minutes. In the fluorescence reader a 3 seconds baseline measurement was performed and the agonist ATP was applied at EC50 concentration of the respective receptor during constant fluorescence measurement for 120 seconds.

| SMILES | IC50 (human P2X3 receptor) [nM] | IC50 (human P2X2/3 receptors) [nM] |
| --- | --- | --- |
| CCc1cc2n(CC(=O)Nc3ccc(F)cn3)c3c(c(=O)n2n1)CN(C(C)COCc1ccccc1)C3=O (racemic) [Example 121, 2-{6-[(±)-1-(benzyloxy)propan-2-yl]-2-ethyl-5,8-dioxo-5,6,7,8-tetrahydro-4H-pyrazolo[1,5-a]pyrrolo[3,4-d]pyrimidin-4-yl}-N-(5-fluoropyridin-2-yl)acetamide] | 51 | 1160 |
| CC(C)N1Cc2c(n(CC(=O)Nc3ccc(F)cn3)c3cc(C(=O)Nc4c(F)cccc4F)nn3c2=O)C1=O [Example 205] | 17 | 5000 |
| CC(C)N1Cc2c(n(CC(=O)Nc3ccc(F)cn3)c3cc(-c4ccc(F)cn4)nn3c2=O)C1=O [Example 165] | 13 | 1460 |
| O=C(Cn1c2c(c(=O)n3nc(C(=O)Nc4ccccc4F)cc13)CN(Cc1ccccn1)C2=O)Nc1ccc(F)cn1 [Example 222] | 15 | 1350 |
| COC[C@H](C)N1Cc2c(n(CC(=O)Nc3ccc(F)cn3)c3cc(C(=O)Nc4cccnn4)nn3c2=O)C1=O [Example 216] | 20 | 5600 |
| CC(C)N1Cc2c(n(CC(=O)Nc3ccc(F)cn3)c3cc(C(=O)Nc4ccccn4)nn3c2=O)C1=O [Example 201] | 37 | 3870 |
| COC[C@H](C)N1Cc2c(n(CC(=O)Nc3ccc(F)cn3)c3cc(C(=O)N(C)c4ccccn4)nn3c2=O)C1=O [Example 214] | 22 | 6450 |
| CC(C)N1Cc2c(n(CC(=O)Nc3ccc(F)cn3)c3cc(N)nn3c2=O)C1=O [Example 241, 2-[2-amino-5,8-dioxo-6-(propan-2-yl)-5,6,7,8-tetrahydro-4H-pyrazolo[1,5-a]pyrrolo[3,4-d]pyrimidin-4-yl]-N-(5-fluoropyridin-2-yl)acetamide hydrochloride (1:1)] | 625 | – |
| CNc1cc2n(CC(=O)Nc3ccc(F)cn3)c3c(c(=O)n2n1)CN([C@@H](C)COC)C3=O [Example 179] | 120 | – |
| CNc1cc2n(CC(=O)Nc3ccc(F)cn3)c3c(c(=O)n2n1)CN(C(C)C)C3=O [Example 174] | 59 | – |
| O=C(Cn1c2c(c(=O)n3nc(-c4ccncc4)cc13)CN(Cc1cccnc1)C2=O)Nc1ccc(F)cn1 [Example 131] | 14 | – |
| COC[C@H](C)N1Cc2c(n(CC(=O)Nc3ccc(F)cn3)c3cc(C(=O)Nc4ncccn4)nn3c2=O)C1=O [Example 217] | 70 | – |
| CC(C)N1Cc2c(n(CC(=O)Nc3ccc(F)cn3)c3cc(C(=O)Nc4ccon4)nn3c2=O)C1=O [Example 211] | 26 | – |
| CC(C)N1Cc2c(n(CC(=O)Nc3ccc(F)cn3)c3cc(C(=O)Nc4cccnn4)nn3c2=O)C1=O [Example 212] | 22 | – |
| CC(C)N1Cc2c(n(CC(=O)Nc3ccc(F)cn3)c3cc([C@@H]4CCOC4)nn3c2=O)C1=O (single isomer, unassigned) [Example 280, 2-{5,8-dioxo-2-[oxolan-3-yl]-6-(propan-2-yl)-5,6,7,8-tetrahydro-4H-pyrazolo[1,5-a]pyrrolo[3,4-d]pyrimidin-4-yl}-N-(5-fluoropyridin-2-yl)acetamide] | 57 | – |
| CCc1cc2n(CC(=O)Nc3ccc(F)cn3)c3c(c(=O)n2n1)CN(C(C)CO)C3=O (racemic) [Example 137, 2-{2-ethyl-6-[(±)-1-hydroxypropan-2-yl]-5,8-dioxo-5,6,7,8-tetrahydro-4H-pyrazolo[1,5-a]pyrrolo[3,4-d]pyrimidin-4-yl}-N-(5-fluoropyridin-2-yl)acetamide] | 155 | – |

| SMILES | IC50 (human P2X3 receptor) [nM] | IC50 (human P2X2/3 receptors) [nM] |
| --- | --- | --- |
| CCc1cc2n(CC(=O)Nc3ccc(F)cn3)c3c(c(=O)n2n1)CN(C1CN(C(=O)OC(C)(C)C)C1)C3=O [Example 116] | 585 | – |
| CCc1cc2n(CC(=O)Nc3ccc(F)cn3)c3c(c(=O)n2n1)CN(CC)C3=O [Example 126] | 57 | – |
| CCc1cc2n(CC(=O)Nc3ccc(F)cn3)c3c(c(=O)n2n1)CN(C)C3=O [Example 127] | 43 | – |
| CC(C)N1Cc2c(n(CC(=O)Nc3ccc(F)cn3)c3cc(C4=COCC4)nn3c2=O)C1=O [Example 144, 2-[2-(4,5-dihydrofuran-3-yl)-5,8-dioxo-6-(propan-2-yl)-5,6,7,8-tetrahydro-4H-pyrazolo[1,5-a]pyrrolo[3,4-d]pyrimidin-4-yl]-N-(5-fluoropyridin-2-yl)acetamide] | 36 | – |
| CC(C)N1Cc2c(n(CC(=O)Nc3ccc(F)cn3)c3cc(C(=O)Nc4ccc(Cl)cn4)nn3c2=O)C1=O [Example 213] | 93 | – |
| O=C(Cn1c2c(c(=O)n3nc(Br)cc13)CN(CCN1CCOCC1)C2=O)Nc1ccc(F)cn1 [Example 111] | 225 | – |
| CCc1cc2n(CC(=O)Nc3ccc(F)cn3)c3c(c(=O)n2n1)CN(C1CCCOC1)C3=O (centres unmarked) [Example 118] | 131 | – |
| CC(C)N1Cc2c(n(CC(=O)Nc3ccc(F)cn3)c3cc(C4CN(C)C4)nn3c2=O)C1=O [Example 262] | 127 | – |
| O=C(Cn1c2c(c(=O)n3nc(C(=O)Nc4ccccc4F)cc13)CN(C1CCOCC1)C2=O)Nc1ccc(F)cn1 [Example 219] | 180 | – |
| COc1ccccc1NC(=O)c1cc2n(CC(=O)Nc3ccc(F)cn3)c3c(c(=O)n2n1)CN(C(C)C)C3=O [Example 202] | 135 | – |
| CC(C)N1Cc2c(n(CC(=O)Nc3ccc(F)cn3)c3cc(C4CN(C(=O)OC(C)(C)C)C4)nn3c2=O)C1=O [Example 230, tert-butyl 3-[4-{2-[(5-fluoropyridin-2-yl)amino]-2-oxoethyl}-5,8-dioxo-6-(propan-2-yl)-5,6,7,8-tetrahydro-4H-pyrazolo[1,5-a]pyrrolo[3,4-d]pyrimidin-2-yl]azetidine-1-carboxylate] | 115 | – |
| CCc1cc2n(CC(=O)Nc3ccc(F)cn3)c3c(c(=O)n2n1)CN(CC(=O)N(C)C1CC1)C3=O [Example 294] | 247 | – |
| CCc1cc2n(CC(=O)Nc3ccc(F)cn3)c3c(c(=O)n2n1)CN(C1CN(C(C)=O)C1)C3=O [Example 269] | 1500 | – |
| CC(C)N1Cc2c(n(CC(=O)Nc3ccc(F)cn3)c3cc(C(=O)Nc4ccc(F)cc4)nn3c2=O)C1=O [Example 208] | 28 | – |
| CCOC(=O)c1cc2n(CC(=O)Nc3ccc(F)cn3)c3c(c(=O)n2n1)CN(CCN1CCOCC1)C3=O [Example 123] | 21 | – |
